# Values of other authors in patent EP2338500A1, “Process for producing concentrated and refined actives from tissues and byproducts of Olea europaea with membrane technologies” (Phenofarm S.r.l., priority 2009, dated 2011).
# Test system: murine leukemic cells P-388
# Details: P-388 cells
row,Compound,cytotoxic activity at a concentration ED50 [µg/mL]
1,C[C@@H]1O[C@@H](O[C@@H]2[C@@H](O)[C@H](OCCc3ccc(O)c(O)c3)O[C@H](COC(=O)/C=C/c3ccc(O)c(O)c3)[C@H]2O)[C@H](O)[C@H](O)[C@H]1O [isoverbascoside],10
2,C[C@@H]1O[C@@H](O[C@@H]2[C@@H](O)[C@H](OCCc3ccc(O)c(O)c3)O[C@H](CO)[C@H]2OC(=O)/C=C/c2ccc(O)c(O)c2)[C@H](O)[C@H](O)[C@H]1O [verbascoside],26
